{"source": "the NIST ThermoML archive (doi:10.1016/j.jct.2018.10.015)", "test": "xn = mol fraction of the nth substance listed", "settings": "101.3 kPa, Liquid; for viscosity: Concentric cylinders viscometry; for mass density: Vibrating tube method", "note": "± gives the expanded uncertainty stated by the source.", "data": [{"smiles": "CCCCn1cc[n+](C)c1C.O=S(=O)([N-]S(=O)(=O)C(F)(F)F)C(F)(F)F", "note": "+ COC(=O)OC", "values": [{"measurement": "viscosity", "setting": "293.15 K, x1 = 0.0976", "result": "1.828 ± 0.024", "unit": "mPa·s"}, {"measurement": "viscosity", "setting": "293.15 K, x1 = 0.1935", "result": "3.518 ± 0.046", "unit": "mPa·s"}, {"measurement": "viscosity", "setting": "293.15 K, x1 = 0.299", "result": "6.864 ± 0.087", "unit": "mPa·s"}, {"measurement": "viscosity", "setting": "293.15 K, x1 = 0.4011", "result": "12.11 ± 0.15", "unit": "mPa·s"}, {"measurement": "viscosity", "setting": "293.15 K, x1 = 0.4954", "result": "19.5 ± 0.24", "unit": "mPa·s"}, {"measurement": "viscosity", "setting": "293.15 K, x1 = 0.5974", "result": "31.06 ± 0.39", "unit": "mPa·s"}, {"measurement": "viscosity", "setting": "293.15 K, x1 = 0.6988", "result": "47.37 ± 0.6", "unit": "mPa·s"}, {"measurement": "viscosity", "setting": "293.15 K, x1 = 0.7987", "result": "68.9 ± 0.89", "unit": "mPa·s"}, {"measurement": "viscosity", "setting": "293.15 K, x1 = 0.9", "result": "97.5 ± 1.4", "unit": "mPa·s"}, {"measurement": "viscosity", "setting": "293.15 K, x1 = 1", "result": "133.6 ± 2.3", "unit": "mPa·s"}, {"measurement": "mass density", "setting": "293.15 K, x1 = 0.0976", "result": "1176 ± 2.5", "unit": "kg/m3"}, {"measurement": "mass density", "setting": "293.15 K, x1 = 0.1935", "result": "1242.1 ± 2.4", "unit": "kg/m3"}, {"measurement": "mass density", "setting": "293.15 K, x1 = 0.299", "result": "1291.6 ± 2.4", "unit": "kg/m3"}, {"measurement": "mass density", "setting": "293.15 K, x1 = 0.4011", "result": "1325.8 ± 2.4", "unit": "kg/m3"}, {"measurement": "mass density", "setting": "293.15 K, x1 = 0.4954", "result": "1350.1 ± 2.5", "unit": "kg/m3"}, {"measurement": "mass density", "setting": "293.15 K, x1 = 0.5974", "result": "1371 ± 2.5", "unit": "kg/m3"}, {"measurement": "mass density", "setting": "293.15 K, x1 = 0.6988", "result": "1387.8 ± 2.5", "unit": "kg/m3"}, {"measurement": "mass density", "setting": "293.15 K, x1 = 0.7987", "result": "1401.5 ± 2.5", "unit": "kg/m3"}, {"measurement": "mass density", "setting": "293.15 K, x1 = 0.9", "result": "1413.2 ± 2.5", "unit": "kg/m3"}, {"measurement": "mass density", "setting": "293.15 K, x1 = 1", "result": "1423.1 ± 2.5", "unit": "kg/m3"}, {"measurement": "viscosity", "setting": "298.15 K, x1 = 0.0976", "result": "1.686 ± 0.021", "unit": "mPa·s"}, {"measurement": "viscosity", "setting": "298.15 K, x1 = 0.1935", "result": "3.172 ± 0.039", "unit": "mPa·s"}, {"measurement": "viscosity", "setting": "298.15 K, x1 = 0.299", "result": "6.035 ± 0.073", "unit": "mPa·s"}, {"measurement": "viscosity", "setting": "298.15 K, x1 = 0.4011", "result": "10.38 ± 0.13", "unit": "mPa·s"}, {"measurement": "viscosity", "setting": "298.15 K, x1 = 0.4954", "result": "16.34 ± 0.2", "unit": "mPa·s"}, {"measurement": "viscosity", "setting": "298.15 K, x1 = 0.5974", "result": "25.45 ± 0.31", "unit": "mPa·s"}, {"measurement": "viscosity", "setting": "298.15 K, x1 = 0.6988", "result": "38.01 ± 0.47", "unit": "mPa·s"}, {"measurement": "viscosity", "setting": "298.15 K, x1 = 0.7987", "result": "54.23 ± 0.66", "unit": "mPa·s"}, {"measurement": "viscosity", "setting": "298.15 K, x1 = 0.9", "result": "75.54 ± 1", "unit": "mPa·s"}, {"measurement": "viscosity", "setting": "298.15 K, x1 = 1", "result": "101.82 ± 1.6", "unit": "mPa·s"}, {"measurement": "mass density", "setting": "298.15 K, x1 = 0.0976", "result": "1170.1 ± 2.5", "unit": "kg/m3"}, {"measurement": "mass density", "setting": "298.15 K, x1 = 0.1935", "result": "1236.6 ± 2.4", "unit": "kg/m3"}, {"measurement": "mass density", "setting": "298.15 K, x1 = 0.299", "result": "1286.4 ± 2.4", "unit": "kg/m3"}, {"measurement": "mass density", "setting": "298.15 K, x1 = 0.4011", "result": "1320.8 ± 2.4", "unit": "kg/m3"}, {"measurement": "mass density", "setting": "298.15 K, x1 = 0.4954", "result": "1345.2 ± 2.5", "unit": "kg/m3"}, {"measurement": "mass density", "setting": "298.15 K, x1 = 0.5974", "result": "1366.2 ± 2.5", "unit": "kg/m3"}, {"measurement": "mass density", "setting": "298.15 K, x1 = 0.6988", "result": "1383 ± 2.5", "unit": "kg/m3"}, {"measurement": "mass density", "setting": "298.15 K, x1 = 0.7987", "result": "1396.8 ± 2.5", "unit": "kg/m3"}, {"measurement": "mass density", "setting": "298.15 K, x1 = 0.9", "result": "1408.5 ± 2.5", "unit": "kg/m3"}, {"measurement": "mass density", "setting": "298.15 K, x1 = 1", "result": "1418.5 ± 2.5", "unit": "kg/m3"}, {"measurement": "viscosity", "setting": "303.15 K, x1 = 0.0976", "result": "1.561 ± 0.02", "unit": "mPa·s"}, {"measurement": "viscosity", "setting": "303.15 K, x1 = 0.1935", "result": "2.876 ± 0.035", "unit": "mPa·s"}, {"measurement": "viscosity", "setting": "303.15 K, x1 = 0.299", "result": "5.352 ± 0.065", "unit": "mPa·s"}, {"measurement": "viscosity", "setting": "303.15 K, x1 = 0.4011", "result": "8.997 ± 0.11", "unit": "mPa·s"}, {"measurement": "viscosity", "setting": "303.15 K, x1 = 0.4954", "result": "13.88 ± 0.17", "unit": "mPa·s"}, {"measurement": "viscosity", "setting": "303.15 K, x1 = 0.5974", "result": "21.16 ± 0.26", "unit": "mPa·s"}, {"measurement": "viscosity", "setting": "303.15 K, x1 = 0.6988", "result": "31.01 ± 0.38", "unit": "mPa·s"}, {"measurement": "viscosity", "setting": "303.15 K, x1 = 0.7987", "result": "43.5 ± 0.54", "unit": "mPa·s"}, {"measurement": "viscosity", "setting": "303.15 K, x1 = 0.9", "result": "59.63 ± 0.74", "unit": "mPa·s"}, {"measurement": "viscosity", "setting": "303.15 K, x1 = 1", "result": "79.23 ± 1.1", "unit": "mPa·s"}, {"measurement": "mass density", "setting": "303.15 K, x1 = 0.0976", "result": "1164.2 ± 2.5", "unit": "kg/m3"}, {"measurement": "mass density", "setting": "303.15 K, x1 = 0.1935", "result": "1231.1 ± 2.4", "unit": "kg/m3"}, {"measurement": "mass density", "setting": "303.15 K, x1 = 0.299", "result": "1281.2 ± 2.4", "unit": "kg/m3"}, {"measurement": "mass density", "setting": "303.15 K, x1 = 0.4011", "result": "1315.7 ± 2.4", "unit": "kg/m3"}, {"measurement": "mass density", "setting": "303.15 K, x1 = 0.4954", "result": "1340.2 ± 2.5", "unit": "kg/m3"}, {"measurement": "mass density", "setting": "303.15 K, x1 = 0.5974", "result": "1361.4 ± 2.5", "unit": "kg/m3"}, {"measurement": "mass density", "setting": "303.15 K, x1 = 0.6988", "result": "1378.3 ± 2.5", "unit": "kg/m3"}, {"measurement": "mass density", "setting": "303.15 K, x1 = 0.7987", "result": "1392.1 ± 2.5", "unit": "kg/m3"}, {"measurement": "mass density", "setting": "303.15 K, x1 = 0.9", "result": "1403.9 ± 2.5", "unit": "kg/m3"}, {"measurement": "mass density", "setting": "303.15 K, x1 = 1", "result": "1413.9 ± 2.5", "unit": "kg/m3"}, {"measurement": "viscosity", "setting": "308.15 K, x1 = 0.0976", "result": "1.445 ± 0.019", "unit": "mPa·s"}, {"measurement": "viscosity", "setting": "308.15 K, x1 = 0.1935", "result": "2.623 ± 0.032", "unit": "mPa·s"}, {"measurement": "viscosity", "setting": "308.15 K, x1 = 0.299", "result": "4.784 ± 0.058", "unit": "mPa·s"}, {"measurement": "viscosity", "setting": "308.15 K, x1 = 0.4011", "result": "7.873 ± 0.095", "unit": "mPa·s"}, {"measurement": "viscosity", "setting": "308.15 K, x1 = 0.4954", "result": "11.92 ± 0.14", "unit": "mPa·s"}, {"measurement": "viscosity", "setting": "308.15 K, x1 = 0.5974", "result": "17.83 ± 0.22", "unit": "mPa·s"}, {"measurement": "viscosity", "setting": "308.15 K, x1 = 0.6988", "result": "25.68 ± 0.31", "unit": "mPa·s"}, {"measurement": "viscosity", "setting": "308.15 K, x1 = 0.7987", "result": "35.46 ± 0.44", "unit": "mPa·s"}, {"measurement": "viscosity", "setting": "308.15 K, x1 = 0.9", "result": "47.91 ± 0.59", "unit": "mPa·s"}, {"measurement": "viscosity", "setting": "308.15 K, x1 = 1", "result": "62.74 ± 0.78", "unit": "mPa·s"}, {"measurement": "mass density", "setting": "308.15 K, x1 = 0.0976", "result": "1158.2 ± 2.5", "unit": "kg/m3"}, {"measurement": "mass density", "setting": "308.15 K, x1 = 0.1935", "result": "1225.6 ± 2.4", "unit": "kg/m3"}, {"measurement": "mass density", "setting": "308.15 K, x1 = 0.299", "result": "1275.9 ± 2.4", "unit": "kg/m3"}, {"measurement": "mass density", "setting": "308.15 K, x1 = 0.4011", "result": "1310.7 ± 2.4", "unit": "kg/m3"}, {"measurement": "mass density", "setting": "308.15 K, x1 = 0.4954", "result": "1335.3 ± 2.4", "unit": "kg/m3"}, {"measurement": "mass density", "setting": "308.15 K, x1 = 0.5974", "result": "1356.5 ± 2.5", "unit": "kg/m3"}, {"measurement": "mass density", "setting": "308.15 K, x1 = 0.6988", "result": "1373.5 ± 2.5", "unit": "kg/m3"}, {"measurement": "mass density", "setting": "308.15 K, x1 = 0.7987", "result": "1387.4 ± 2.5", "unit": "kg/m3"}, {"measurement": "mass density", "setting": "308.15 K, x1 = 0.9", "result": "1399.2 ± 2.5", "unit": "kg/m3"}, {"measurement": "mass density", "setting": "308.15 K, x1 = 1", "result": "1409.3 ± 2.5", "unit": "kg/m3"}]}]}
